Literature values as cited in PubChem BioAssay AID1259409 (Chemical Carcinogenesis Research Information System (CCRIS), 2018).
“And” between values parts separate entries of the source, which are not always exact repeats. Equal entries are not always repeated.

System: rodent chemically induced tumor inhibition, incidence and multiplicity
Assay: CCRIS tumor inhibitor studies
Conditions: Route [Inhibitor]: ORAL, Promoter: NONE USED

Structure (SMILES)	tumour outcome (control, treated, inhibition, significance) (Carcinogen: 7,12-DIMETHYLBENZ[A]ANTHRACENE, 57-97-6, Dose [Inhibitor]: 0, 0.005 MOL/KG DIET BEGINNING 2 WK PRIOR TO CARCINOGEN AND CONTINUED FOR STUDY DURATION (STUDY DURATION: 25 WK), Species: RAT, Strain/Sex: CD-1/FEMALE, Target Tissue: Type of Lesion: MAMMARY GLAND: ADENOCARCINOMA, Dose [Carcinogen]: 10 MG ONCE)	tumour outcome (control, treated, inhibition, significance) (Carcinogen: 7,12-DIMETHYLBENZ[A]ANTHRACENE, 57-97-6, Dose [Inhibitor]: 0, 0.01 MOL/KG DIET BEGINNING 2 WK PRIOR TO CARCINOGEN AND CONTINUED FOR STUDY DURATION (STUDY DURATION: 25 WK), Species: RAT, Strain/Sex: CD-1/FEMALE, Target Tissue: Type of Lesion: MAMMARY GLAND: ADENOCARCINOMA, Dose [Carcinogen]: 10 MG ONCE)	tumour outcome (control, treated, inhibition, significance) (Carcinogen: 7,12-DIMETHYLBENZ[A]ANTHRACENE, 57-97-6, Dose [Inhibitor]: 0, 0.02 MOL/KG DIET BEGINNING 2 WK PRIOR TO CARCINOGEN AND CONTINUED FOR STUDY DURATION (STUDY DURATION: 25 WK), Species: RAT, Strain/Sex: CD-1/FEMALE, Target Tissue: Type of Lesion: MAMMARY GLAND: ADENOCARCINOMA, Dose [Carcinogen]: 10 MG ONCE)	tumour outcome (control, treated, inhibition, significance) (Carcinogen: BENZO[A]PYRENE, 50-32-8, Dose [Inhibitor]: 0.03 MMOL/G OF DIET DAILY STARTING 7 D BEFORE AND CONTINUING THROUGH 3 D AFTER CARCINOGEN TREATMENT FOLLOWED BY OBSERVAT, Species: MOUSE, Strain/Sex: ICR/FEMALE, Target Tissue: Type of Lesion: FORESTOMACH: NEOPLASM, Dose [Carcinogen]: 1 MG IN 0.2 ML CORN OIL 2/WK FOR 4 WK)
C[S+](C)CC(=O)[O-]	20/25 (80%), 19/25 (76%), 5%, not significant	20/25 (80%), 21/25 (84%), -5%, not significant	20/25 (80%), 18/25 (72%), 10%, not significant	
CC(C)(C)c1cc(O)c(O)c(C(C)(C)C)c1				100%, 75%, 25%, p<0.05 and 95%, 74%, 22%, not significant
